These are literature values, as cited in patent CN104352465A, “一种不含二氧化硅的琥珀酸普芦卡必利药物组合物及其制备方法” (CHENGDU SINO-STRONG PHARMACEUTICAL Co Ltd, priority 2014, dated 2015).

The structures appear in SMILES notation.

The conditions of this series: within shelf life, with the diluent lactose monohydrate.

Regarding `COCCCN1CCC(NC(=O)c2cc(Cl)c(N)c3c2OCC3)CC1.O=C(O)CCC(=O)O` [琥珀酸普芦卡必利, 4-氨基-5-氯-2,3-二氢-N-[1-(3-甲氧基丙基)-4-哌啶基]-7-苯并呋喃甲酰胺丁二酸盐], the “adduct formation with lactose monohydrate” value is on record as “形成乳糖加合物”.
